ChEMBL document CHEMBL1821651, “Structure-activity relationships of phosphoinositide 3-kinase (PI3K)/mammalian target of rapamycin (mTOR) dual inhibitors: investigations of various 6,5-heterocycles to improve metabolic stability” (J Med Chem, 2011)
≈ marks a conversion by molar mass, not a printed value.

Key:
[1] = Clearance in mouse liver microsomes; type: ADME, Microsome
[2] = Clearance in Beagle dog liver microsomes; type: ADME, Canis lupus familiaris, Microsome
[3] = Clearance in cynomolgus monkey liver microsomes; type: ADME, Macaca fascicularis, Microsome
Rattus norvegicus [4] = species: Rattus norvegicus; assay: Liver blood flow in Sprague-Dawley rat; type: ADME, organism-based
Canis familiaris = species: Canis familiaris; assay: Liver blood flow in Beagle dog; type: ADME, organism-based, Canis lupus familiaris
Mus musculus [5] = species: Mus musculus; assay: Liver blood flow in mouse; type: ADME, organism-based
in vitro [6] = conditions: human, liver microsomes
Description: Clearance in human liver microsomes

in vitro [7] = conditions: Sprague-Dawley, rat, liver microsomes
Description: Clearance in Sprague-Dawley rat liver microsomes

[8] = biological target: Serine/threonine-protein kinase mTOR (Homo sapiens, UniProt P42345); assay: Inhibition of recombinant N-terminal GST-tagged mTOR-mediated 4E-BP1 phosphorylation after 60 mins by TR-FRET assay
[9] = biological target: Phosphatidylinositol 4,5-bisphosphate 3-kinase catalytic subunit gamma isoform (Homo sapiens, UniProt P48736); assay: Inhibition of human N-terminal His-tagged PI3Kgamma expressed in insect Sf9 cells using PI(4,5)P2 as substrate after 20 mins by alphascreen assay in presence of 8 uM ATP
[10] = biological target: T1, Phosphatidylinositol 4,5-bisphosphate 3-kinase catalytic subunit delta isoform (Homo sapiens, UniProt O00329); assay: Inhibition of human N-terminal His-tagged PI3Kdelta expressed in insect Sf9 cells using PI(4,5)P2 as substrate after 20 mins by alphascreen assay in presence of 8 uM ATP
T1 sequence (O00329 whole entry): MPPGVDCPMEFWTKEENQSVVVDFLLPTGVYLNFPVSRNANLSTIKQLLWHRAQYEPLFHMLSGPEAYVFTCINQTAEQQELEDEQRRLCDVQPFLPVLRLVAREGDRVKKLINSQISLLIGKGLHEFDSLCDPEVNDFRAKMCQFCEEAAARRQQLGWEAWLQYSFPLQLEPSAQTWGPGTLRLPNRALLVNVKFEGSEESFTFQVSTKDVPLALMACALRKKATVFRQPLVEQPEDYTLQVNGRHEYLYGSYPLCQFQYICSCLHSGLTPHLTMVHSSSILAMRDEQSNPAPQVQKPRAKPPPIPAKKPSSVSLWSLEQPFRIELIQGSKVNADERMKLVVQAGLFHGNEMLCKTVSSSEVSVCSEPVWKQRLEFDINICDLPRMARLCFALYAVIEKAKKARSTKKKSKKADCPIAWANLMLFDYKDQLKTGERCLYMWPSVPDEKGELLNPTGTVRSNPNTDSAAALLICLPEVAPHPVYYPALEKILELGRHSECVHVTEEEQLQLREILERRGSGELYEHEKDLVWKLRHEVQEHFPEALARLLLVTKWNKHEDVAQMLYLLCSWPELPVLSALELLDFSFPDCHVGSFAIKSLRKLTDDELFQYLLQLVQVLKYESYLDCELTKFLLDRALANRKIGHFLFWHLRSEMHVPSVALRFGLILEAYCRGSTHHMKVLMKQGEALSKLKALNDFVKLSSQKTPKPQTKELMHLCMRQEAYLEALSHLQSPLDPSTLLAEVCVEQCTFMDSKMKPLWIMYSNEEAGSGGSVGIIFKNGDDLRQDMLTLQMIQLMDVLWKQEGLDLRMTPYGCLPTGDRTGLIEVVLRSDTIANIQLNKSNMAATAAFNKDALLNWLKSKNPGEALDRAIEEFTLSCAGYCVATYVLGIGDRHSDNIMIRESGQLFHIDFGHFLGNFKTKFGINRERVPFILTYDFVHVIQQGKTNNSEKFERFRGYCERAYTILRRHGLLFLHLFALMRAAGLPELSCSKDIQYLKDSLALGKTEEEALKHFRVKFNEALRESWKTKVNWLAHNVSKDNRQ

[11] = Clearance in iv dosed Sprague-Dawley rat; type: ADME, organism-based; conditions: in vivo
Rattus norvegicus [12] = assay: Liver blood flow in iv dosed Sprague-Dawley rat; type: ADME, organism-based; conditions: in vivo
[13] = Volume of distribution in iv dosed Sprague-Dawley rat; type: ADME, organism-based; conditions: in vivo
[14] = Elimination half life in iv dosed Sprague-Dawley rat; type: ADME, organism-based; conditions: in vivo, read-out: beta t1/2 (converted)
[15] = Oral bioavailability in Sprague-Dawley rat at 2 mg/kg; type: ADME, organism-based; conditions: in vivo
[16] = AUC in Sprague-Dawley rat at 2 mg/kg, po; type: ADME, organism-based; design: dose 2 mg/kg, route oral; conditions: plasma
[17] = Ratio of drug level in tumor to plasma in nu/nu CD1 mouse xenografted with U87MG tumor at 1 mg/kg, po administered as single dose measured upto 8 hrs; type: ADME, organism-based; design: dose 1 mg/kg, route oral; conditions: tumor and plasma
[18] = Ratio of drug level in tumor to plasma in nu/nu CD1 mouse xenografted with U87MG tumor at 3 mg/kg, po administered as single dose measured upto 16 hrs; type: ADME, organism-based; design: dose 3 mg/kg, route oral; conditions: tumor and plasma
Mus musculus [19] = assay: In vivo inhibition of PI3Kalpha-mediated Akt phosphorylation in nu/nu CD1 mouse xenografted with U87MG tumor; type: functional, organism-based; conditions: CD1, U-87 MG
[20] = Antitumor activity against human U87MG tumor xenografted in nu/nu CD1 mouse assessed as inhibition of tumor growth at 1 mg/kg, po qd; type: functional, U-87MG ATCC; conditions: U-87 MG, read-out: GI
[21] = Antitumor activity against human U87MG tumor xenografted in po dosed nu/nu CD1 mouse assessed as tumor growth delay; type: functional, U-87MG ATCC; conditions: U-87 MG
[22] = AUC (0 to 24 hrs) in plasma of nu/nu CD1 mouse xenografted with human U87MG cells at ED50; type: ADME, organism-based, U-87MG ATCC; design: time < 24 hr
Mus musculus [23] = assay: Toxicity in nu/nu CD1 mouse xenografted with human U87MG cells assessed as weight loss at 3 mg/kg, po relative to control; type: organism-based, U-87MG ATCC; design: dose 3 mg/kg, route oral; conditions: in vivo
[24] = biological target: Phosphatidylinositol 4,5-bisphosphate 3-kinase catalytic subunit alpha isoform (Homo sapiens, UniProt P42336); assay: Inhibition of human PI3Kalpha using PI(4,5)P2 as substrate after 20 mins by alphascreen assay in presence of 20 uM ATP
[25] = biological target: Phosphatidylinositol 4,5-bisphosphate 3-kinase catalytic subunit beta isoform (Homo sapiens, UniProt P42338); assay: Inhibition of human N-terminal His-tagged PI3Kbeta expressed in insect Sf9 cells using PI(4,5)P2 as substrate after 20 mins by alphascreen assay in presence of 20 uM ATP
Plasma = Plasma EC50 for pAkt inhibition in nu/nu CD1 mouse xenografted with U87 MG tumor

Sequence of Phosphatidylinositol 4,5-bisphosphate 3-kinase catalytic subunit alpha isoform (P42336 whole entry, canonical isoform): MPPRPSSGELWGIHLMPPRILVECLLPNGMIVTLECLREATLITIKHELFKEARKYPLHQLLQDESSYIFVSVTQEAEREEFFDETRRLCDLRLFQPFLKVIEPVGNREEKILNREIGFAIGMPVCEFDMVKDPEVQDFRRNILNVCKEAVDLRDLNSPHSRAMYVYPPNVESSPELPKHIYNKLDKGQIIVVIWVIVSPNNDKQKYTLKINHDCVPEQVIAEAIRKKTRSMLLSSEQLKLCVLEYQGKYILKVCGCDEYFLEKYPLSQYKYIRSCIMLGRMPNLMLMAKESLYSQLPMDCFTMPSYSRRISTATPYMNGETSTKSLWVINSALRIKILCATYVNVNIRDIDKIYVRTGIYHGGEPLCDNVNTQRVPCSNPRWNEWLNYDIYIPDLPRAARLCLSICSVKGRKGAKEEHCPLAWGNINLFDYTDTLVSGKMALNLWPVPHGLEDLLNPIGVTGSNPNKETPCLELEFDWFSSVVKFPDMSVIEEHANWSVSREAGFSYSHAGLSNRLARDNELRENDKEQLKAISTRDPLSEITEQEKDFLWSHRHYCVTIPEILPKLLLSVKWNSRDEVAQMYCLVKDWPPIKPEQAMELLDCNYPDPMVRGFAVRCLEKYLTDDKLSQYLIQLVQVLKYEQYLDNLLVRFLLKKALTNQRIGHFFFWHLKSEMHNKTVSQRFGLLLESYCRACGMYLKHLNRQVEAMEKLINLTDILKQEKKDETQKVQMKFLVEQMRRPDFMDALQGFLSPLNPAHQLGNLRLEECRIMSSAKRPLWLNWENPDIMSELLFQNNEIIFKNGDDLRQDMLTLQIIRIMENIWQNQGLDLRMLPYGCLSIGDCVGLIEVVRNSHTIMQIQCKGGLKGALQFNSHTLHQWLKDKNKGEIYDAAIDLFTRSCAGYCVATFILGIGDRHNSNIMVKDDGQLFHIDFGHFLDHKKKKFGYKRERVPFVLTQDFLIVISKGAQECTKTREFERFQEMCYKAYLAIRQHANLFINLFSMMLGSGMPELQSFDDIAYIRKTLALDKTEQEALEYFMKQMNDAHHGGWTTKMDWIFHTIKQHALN
Sequence of Phosphatidylinositol 4,5-bisphosphate 3-kinase catalytic subunit gamma isoform (P48736 whole entry, canonical isoform): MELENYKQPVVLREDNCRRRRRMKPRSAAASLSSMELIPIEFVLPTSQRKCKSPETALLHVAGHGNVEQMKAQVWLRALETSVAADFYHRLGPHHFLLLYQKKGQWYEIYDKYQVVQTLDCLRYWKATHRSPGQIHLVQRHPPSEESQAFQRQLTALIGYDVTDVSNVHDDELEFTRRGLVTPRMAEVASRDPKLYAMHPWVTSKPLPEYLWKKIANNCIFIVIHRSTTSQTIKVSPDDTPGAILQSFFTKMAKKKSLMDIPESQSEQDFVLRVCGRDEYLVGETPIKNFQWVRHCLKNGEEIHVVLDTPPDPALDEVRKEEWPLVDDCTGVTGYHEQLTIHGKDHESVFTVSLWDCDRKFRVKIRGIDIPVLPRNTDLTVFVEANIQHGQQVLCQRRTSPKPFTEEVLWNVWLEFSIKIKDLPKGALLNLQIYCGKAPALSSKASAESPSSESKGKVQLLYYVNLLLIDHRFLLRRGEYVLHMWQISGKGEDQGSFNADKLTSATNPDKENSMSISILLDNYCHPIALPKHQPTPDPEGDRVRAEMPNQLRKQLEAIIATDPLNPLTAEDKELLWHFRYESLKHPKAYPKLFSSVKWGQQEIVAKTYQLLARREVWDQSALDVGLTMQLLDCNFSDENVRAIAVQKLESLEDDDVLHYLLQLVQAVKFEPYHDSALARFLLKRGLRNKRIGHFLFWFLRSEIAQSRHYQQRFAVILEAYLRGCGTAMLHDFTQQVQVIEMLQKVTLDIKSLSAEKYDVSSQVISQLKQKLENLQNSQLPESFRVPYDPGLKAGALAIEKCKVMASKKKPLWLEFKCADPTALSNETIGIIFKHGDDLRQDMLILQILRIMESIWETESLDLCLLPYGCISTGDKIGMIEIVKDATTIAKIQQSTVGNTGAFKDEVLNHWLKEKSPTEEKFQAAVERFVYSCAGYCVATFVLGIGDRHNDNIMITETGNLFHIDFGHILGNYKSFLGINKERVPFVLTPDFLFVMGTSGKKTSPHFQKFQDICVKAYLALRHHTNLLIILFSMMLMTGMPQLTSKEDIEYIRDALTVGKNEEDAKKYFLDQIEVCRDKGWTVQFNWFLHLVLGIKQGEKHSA
Sequence of Phosphatidylinositol 4,5-bisphosphate 3-kinase catalytic subunit beta isoform (P42338 whole entry, canonical isoform): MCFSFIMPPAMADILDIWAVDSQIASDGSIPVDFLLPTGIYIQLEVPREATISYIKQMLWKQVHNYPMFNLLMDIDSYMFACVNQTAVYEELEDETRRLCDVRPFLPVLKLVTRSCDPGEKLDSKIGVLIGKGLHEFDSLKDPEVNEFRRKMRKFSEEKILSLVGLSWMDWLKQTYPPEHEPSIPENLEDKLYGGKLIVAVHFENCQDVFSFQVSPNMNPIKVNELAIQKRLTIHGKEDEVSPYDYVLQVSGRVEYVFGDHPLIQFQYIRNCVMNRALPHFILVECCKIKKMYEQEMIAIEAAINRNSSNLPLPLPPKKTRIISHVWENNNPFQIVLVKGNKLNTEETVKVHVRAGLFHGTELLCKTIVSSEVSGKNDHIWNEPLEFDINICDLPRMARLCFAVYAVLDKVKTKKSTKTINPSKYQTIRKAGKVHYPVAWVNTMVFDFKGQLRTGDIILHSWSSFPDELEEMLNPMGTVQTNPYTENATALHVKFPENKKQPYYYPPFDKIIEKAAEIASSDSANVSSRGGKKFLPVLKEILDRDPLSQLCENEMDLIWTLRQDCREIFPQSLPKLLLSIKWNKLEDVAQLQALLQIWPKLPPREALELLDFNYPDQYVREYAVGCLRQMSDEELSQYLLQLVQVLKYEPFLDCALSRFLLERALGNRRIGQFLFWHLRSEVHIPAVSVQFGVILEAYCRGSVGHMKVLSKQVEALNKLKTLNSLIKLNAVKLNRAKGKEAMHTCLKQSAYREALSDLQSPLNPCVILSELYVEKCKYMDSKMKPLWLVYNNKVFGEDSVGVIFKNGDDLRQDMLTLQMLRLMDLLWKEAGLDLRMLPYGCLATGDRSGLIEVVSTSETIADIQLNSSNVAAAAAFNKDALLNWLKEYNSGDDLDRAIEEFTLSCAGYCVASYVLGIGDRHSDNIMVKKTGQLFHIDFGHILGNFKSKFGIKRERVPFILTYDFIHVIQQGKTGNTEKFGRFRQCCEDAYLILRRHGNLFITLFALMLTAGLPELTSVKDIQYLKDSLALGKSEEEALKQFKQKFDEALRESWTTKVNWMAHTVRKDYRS

| SMILES | IC50 [8] | Ki [24] | other results |
| --- | --- | --- | --- |
| CC(=O)Nc1nc2ccc(-c3cnc(Cl)c(NS(=O)(=O)c4ccc(F)cc4)c3)cc2s1 | – | – | microsomal CLint [1]: < 26 µL/min/mg; microsomal CLint [2]: < 26 µL/min/mg; microsomal CLint [3]: < 26 µL/min/mg; QH (Rattus norvegicus [4]): 0.2%; QH (Canis familiaris): 0.2%; QH (Mus musculus [5]): 0.2%; microsomal CLint (in vitro [6]): < 26 µL/min/mg; microsomal CLint (in vitro [7]): < 26 µL/min/mg |
| Nc1nc2ccc(-c3cnc(Cl)c(NS(=O)(=O)c4ccc(F)cc4)c3)cc2s1 | 24 nM | – | – |
| O=S(=O)(Nc1cc(-c2ccc3ncsc3c2)cnc1Cl)c1ccc(F)cc1 | 33 nM | – | – |
| CC(=O)Nc1cn2nc(-c3cnc(Cl)c(NS(=O)(=O)c4ccc(F)cc4)c3)ccc2n1 | 0.4 nM | 1.4 nM | Ki [9]: 1.9 nM; Ki [10]: 0.8 nM; clearance [11]: 0.667 mL/min/kg; QH (Rattus norvegicus [12]): 1.2%; Vd [13]: 0.27 L/kg; half-life [14]: 7 h; bioavailability [15]: 46%; AUC [16]: 11500 ng·h/mL; Kp at 8 h [17]: 0.13; Kp at 16 h [18]: 0.27; EC50 (Mus musculus [19]): 0.232 µg/mL (≈ 0.503 µM); inhibition in vivo at 1 mg/kg [20]: 49%; ED50 [21]: 0.7 mg/kg; AUC(0-t) at 24 h [22]: 9200 ng·h/mL; Activity (Mus musculus [23]): < 5%; Ki [25]: 3.5 nM; EC50 (Plasma): 500 nM |
| Nc1cn2nc(-c3cnc(Cl)c(NS(=O)(=O)c4ccc(F)cc4)c3)ccc2n1 | 35 nM | 11 nM | – |
| O=S(=O)(Nc1cc(-c2ccc3nccn3n2)cnc1Cl)c1ccc(F)cc1 | 49 nM | 6.1 nM | – |
| CC(=O)Nc1cn2cc(-c3cnc(Cl)c(NS(=O)(=O)c4ccc(F)cc4)c3)ccc2n1 | 6.6 nM | 1.2 nM | – |
| Nc1cn2cc(-c3cnc(Cl)c(NS(=O)(=O)c4ccc(F)cc4)c3)ccc2n1 | 20 nM | 2.8 nM | – |
| O=S(=O)(Nc1cc(-c2ccc3nccn3c2)cnc1Cl)c1ccc(F)cc1 | 229 nM | 23 nM | – |
| CC(=O)Nc1nc2ccc(-c3cnc(Cl)c(NS(=O)(=O)c4ccc(F)cc4)c3)cc2[nH]1 | 20 nM | 3.3 nM | – |
| Nc1nc2ccc(-c3cnc(Cl)c(NS(=O)(=O)c4ccc(F)cc4)c3)cc2[nH]1 | 430 nM | 119 nM | – |
| O=S(=O)(Nc1cc(-c2ccc3nc[nH]c3c2)cnc1Cl)c1ccc(F)cc1 | 446 nM | 68 nM | – |
| CC(=O)Nc1nc2ccc(-c3cnc(Cl)c(NS(=O)(=O)c4ccc(F)cc4)c3)cc2o1 | 146 nM | 47 nM | – |
| Nc1nc2ccc(-c3cnc(Cl)c(NS(=O)(=O)c4ccc(F)cc4)c3)cc2o1 | 70 nM | 7.2 nM | – |
| O=S(=O)(Nc1cc(-c2ccc3ncoc3c2)cnc1Cl)c1ccc(F)cc1 | 76 nM | 26 nM | – |
| O=S(=O)(Nc1cc(-c2ccc3nncn3c2)cnc1Cl)c1ccc(F)cc1 | > 25000 nM | 51 nM | – |
| O=S(=O)(Nc1cc(-c2ccc3sncc3c2)cnc1Cl)c1ccc(F)cc1 | 292 nM | 76 nM | – |
